Laboratory results: patent publication US10442808B2, “Pyrazolo pyrimidine derivatives and their use as MALT1 inhbitors” (NOVARTIS AG, priority 2014, dated 2019)

Legend:
[1] = target: C-domain of MALT1 (amino acids 329-824) (Homo sapiens (Human), UniProt Q9UDY8); test: MALT1 biochemical assay (fluorescence lifetime enzyme activity assay); conditions: 60 min preincubation, 2.5 nM enzyme, 1 μM substrate
Experimental: The readout parameter is the increase of fluorescence lifetime over time, proportional to enzyme activity.
The assay employs a short peptide substrate labeled with the single fluorophore PT14 as a fluorescence lifetime probe sensitive to the cleavage state of the substrate (PT14: 6-(9-oxo-9H-acridin-10-yl)-hexanoate, AssayMetrics, UK). […] The assay buffer consists of 200 mM Tris/HCl at pH 7.5, 0.8 M Na citrate, 100 μM EGTA, 100 μM DTT and 0.05% (w/v) CHAPS. […] Test compounds were dissolved in 100% (v/v) DMSO or a mixture containing 90% (v/v) DMSO and 10% (v/v) H2O at a stock concentration of 100 mM. Serial dilutions of test compounds were prepared using either 100% (v/v) DMSO or a mixture containing 90% (v/v) DMSO and 10% (v/v) H2O.
The exponent, p, is the Hill coefficient.

IL2 promoter = test: Human IL2 promoter reporter gene assay (RGA) in Jurkat cells; format: cell-based; conditions: […], heading: IL2 reporter gene assay IC50, anti-CD28 mAb + PMA stimulation 5.5 h
Summary of the method: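 Transfected Jurkat clone K22 290_H23 (IL2 promoter reporter) was pre-incubated with compound 30 min at 37 °C. Stimulation used anti-CD28 mAb 15E8 at 3 μg/ml plus PMA at 1 μg/ml for 5.5 h. Read-out was luciferase bioluminescence (BriteLitePlus).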

Sequence of C-domain of MALT1 (amino acids 329-824) (Q9UDY8 329-824): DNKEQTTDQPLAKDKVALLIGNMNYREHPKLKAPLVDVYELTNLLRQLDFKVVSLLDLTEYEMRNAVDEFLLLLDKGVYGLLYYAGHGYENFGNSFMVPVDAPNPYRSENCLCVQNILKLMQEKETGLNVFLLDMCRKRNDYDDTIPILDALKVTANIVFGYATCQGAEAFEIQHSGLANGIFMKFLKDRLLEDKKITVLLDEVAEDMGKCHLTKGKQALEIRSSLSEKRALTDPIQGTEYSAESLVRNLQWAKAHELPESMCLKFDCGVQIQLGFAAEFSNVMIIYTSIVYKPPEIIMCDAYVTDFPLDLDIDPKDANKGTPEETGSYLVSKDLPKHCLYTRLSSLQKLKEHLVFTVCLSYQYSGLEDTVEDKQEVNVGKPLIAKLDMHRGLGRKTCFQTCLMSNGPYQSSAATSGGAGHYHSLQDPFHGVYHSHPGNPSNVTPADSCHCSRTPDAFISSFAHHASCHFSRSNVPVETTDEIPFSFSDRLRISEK

Row | IC50 [1] [nM] | IC50 (IL2 promoter) [nM] | SMILES
1 | 80 | 44 | Cn1ccnc1-c1c(NC(=O)Nc2cnc(-n3nccn3)c(Cl)c2)cnc2cc(Cl)nn12 [Example 86, 1-(5-chloro-6-(2H-1,2,3-triazol-2-yl)pyridin-3-yl)-3-(2-chloro-7-(1-methyl-1H-imidazol-2-yl)pyrazolo[1,5-a]pyrimidin-6-yl)urea]
2 | 4 | 526 | CC(C)c1c(NC(=O)Nc2ccc(-c3ccnc(N)n3)c(Cl)c2)cnc2cc(Cl)nn12 [Example 23, 1-(4-(2-aminopyrimidin-4-yl)-3-chlorophenyl)-3-(2-chloro-7-isopropylpyrazolo[1,5-a]pyrimidin-6-yl)urea]
